The record followed here is patent US7186695B2 (priority 2001, dated 2007).

Entries after “also recorded” stand apart in the source; their conditions may differ.

For orientation: IC50 means the concentration at which inhibition is half-maximal. The low end stands for higher potency, the high end for lower potency.

For data set [1], the system named is adherent BAE cells. The data set can be described thus: Membrane permeability, tritiated GSAO in cytosol. In kind it is in vitro ADME, bovine. The conditions noted are these: 50 μM GSAO, 1 hour. Here is the method:
(§1) Human T cells (A3.01) or adherent BAE cells were incubated with complete medium containing 50 μM GSAO and ˜100,000 counts per minute of tritiated GSAO for 1 or 72 hours. Tritiated GSAO was prepared exactly as described for GSAO except that glycine-2-^3H-glutathione (NEN, Boston, Mass.) was used in place of cold glutathione. The cells were washed and lysed by two cycles of freezing and thawing. The cytosolic constituents were collected by differential centrifugation (Ausbel et al., 2000) and the tritiated GSAO was measured. Only 0.5% of the total tritiated GSAO was found in the T cell cytosol and 0.04% in the BAE cytosol after 1 hour. Moreover, only 4.5% of the GSAO penetrated the T cell membrane after 72 hours of culture.

Data set [2] relates to chick chorioallantoic membrane (CAM) angiogenesis. The data set can be described thus: Chick chorioallantoic membrane (CAM) angiogenesis assay. The conditions noted are these: 5, 10 or 50 μg per pellet, 48 hr. In kind it is in vivo. The protocol:
FIG. 22. Inhibition of CAM angiogenesis by GSAO. Fertilised 3 day-old white Leghorn eggs were cracked, the embryos placed in petri dishes and incubated for 3 days. Methylcellulose discs containing 5, 10 or 50 μg of either GSAA or GSAO were then applied to the CAM of individual embryos and incubated for 48 hr. The CAMs were scored for no obvious effect or inhibition of angiogenesis as defined by avascular zones. Photographs of CAM's after incubation with discs containing 10 μg of either GSM (top) or GSAO (bottom) is shown in the left hand panel. The dotted circle indicates the placement of the disc.
The chick CAM assay has been used for the detection and analysis of angiogenesis inhibition (Nguyen et al., 1994). Fertilised 3 day-old white Leghorn eggs (Spafas, Norwich, Conn.) were cracked, the embryos with intact yolks placed in 20×100 mm petri dishes and incubated for 3 days at 37° C. and 3% CO2 (Folkman, 1995). Methylcellulose (Fisher Scientific, Fair Lawn, N.J.) discs containing 5, 10 or 50 μg of either GSAA or GSAO were then applied to the CAM of individual embryos and incubated for 48 hr at 37° C. and 3% CO2. The discs were made by desiccation of GSAA or GSAO in 10 μl of 0.45% methycellulose on teflon rods. The CAMs were observed using a stereomicroscope and scored for no obvious effect or inhibition of CAM angiogenesis as defined by avascular zones. On some occasions CAM blood vessels were injected with India ink and photographed.

The test system of data set [3] is BVSM cells. The data set can be described thus: Proliferation and viability of cultured cells, 72 hr, cell count. In kind it is cell-based, bovine. The protocol:
(§2) FIG. 19. Effect of GSAO on Proliferation of non-endothelial cells. 15,000 BxPC-3 (part A), HT1080 (part B), 3T3 (part C) or BVSM (part D) cells per well were seeded into gelatinised 24-well culture plates and allowed to attach for 24 hr. The media was then replaced with DMEM containing 0 to 1 mM GSAO or GSAA and either 5% BCS (part D) or 5% FCS (parts A, B and C). Cells were cultured for 72 hr and then dispersed and counted. The dotted lines indicate the cell number in control wells containing DMEM and 2% BCS (part D) or 2% FCS (parts A, B and C) which represented no to limited proliferation. The data points and errors represent the mean and range of duplicate wells.
(§3) BCE (Folkman et al. 1979), BAE, BxPC-3 (ATCC, Bethesda, Md.), HT1080 (Jiang et al., 1999), 3T3 (ATCC, Bethesda, Md.) and BVSM (Hogg et al., 1997) cells were harvested and cultured as indicated. Cells (0.5 mL of 30,000 or 100,000 cells per mL) were seeded into gelatinized 24-well culture plates (Corning Costar, Corning, N.Y.) in Dulbecco's Modified Eagle's Medium (DMEM, JHR Bioscience, Lenexa, Kans.) containing 10% fetal calf serum (FCS, Intergen Comp., Purchase, N.Y.) and 1% Glutamine Pen-Strep (GPS, Irvine Scientific, Santa Ana, Va.) and allowed to attach for 24 hr in 10% CO2 at 37° C. The media was then replaced with DMEM and 1% GPS containing 0 to 1 mM GSAO or GSAA and either 5% bovine calf serum (BCS, HyClone, Logan, Utah) and 1 ng per mL FGF-2 (Genzyme, Cambridge, Mass.) or 5% BCS and 10 ng per mL VEGF (Genzyme, Cambridge, Mass.) for BCE cells, 5% or 10% BCS for BAE cells, 5% BCS for BVSM cells, and 5% FCS for BxPC-3, HT1080 and 3T3 cells. Cells were cultured for 0 to 72 hr in 10% CO2 at 37° C. then dispersed in trypsin/EDTA (GibcoBRL, Granc Island, N.Y.), resuspended in Coulter balanced electrolyte solution and counted with a Z1 Coulter counter (Coulter Corp., Miami, Fla.). In all experiments there were two control wells containing DMEM with 1% GPS and either 5% BCS for BCE cells, 2% BCS for BAE and BVSM cells, or 2% FCS for BxPC-3, HT1080 and 3T3 cells. These wells represented no to limited proliferation.

For data set [4], the system named is 3T3 fibroblasts. Described as above. In kind it is cell-based, murine. Here is the method: as §2, §3
The subject of data set [5] is BxPC-3 cells. The description is as above. In kind it is cell-based, human. Here is the method:
as §2, §3

The test system of data set [6] is Human T cells (A3.01). The data set can be described thus: Membrane permeability, tritiated GSAO in cytosol. In kind it is in vitro ADME. The conditions noted are these: 50 μM GSAO. Here is the method: as §1
Data set [7] concerns BAE cells.

With `NC(CCC(=O)NC(CSCC(=O)Nc1ccc([As]=O)cc1)C(=O)NCC(=O)O)C(=O)O` (stereo not drawn) [GSAO, 4-(N-(S-glutathionylacetyl)amino)-phenylarsenoxide], the “total tritiated GSAO found in the cytosol” value in data set [1] came to 0.04%; in data set [6] (1 hour), 0.5%. Moreover, the “adverse effect on the wellbeing of the chick embryo” value in data set [2] is recorded as “Neither GSAA nor GSAO had any apparent adverse effect”. Besides, in data set [2], the “inhibition of CAM angiogenesis (avascular zones)” value was “inhibited angiogenesis in the CAM in a concentration-dependent manner”. The “Proliferation IC50” value was “did not affect the proliferation; also recorded: No effect” in data set [3] (5% BCS, 72 hr); “did not affect the proliferation; also recorded: No effect” in data set [4] (3T3, 5% FCS, 72 hr); “did not affect the proliferation; also recorded: No effect” in data set [5] (BxPc3, 5% FCS, 72 hr). Further, the IC50 was roughly 40 µM in data set [3] (Bos taurus, 5% BCS, 72 hr); roughly 40 µM in data set [4] (Mus musculus, Fibroblast, 3T3, 5% FCS, 72 hr); roughly 40 µM in data set [5] (Homo sapiens, BXPC-3, BxPc3, 5% FCS, 72 hr). Further, in data set [6] (72 hours of culture), the “GSAO that penetrated the T cell membrane” value turned out to be 4.5%.

Turning to `N[C@@H](CCC(=O)N[C@@H](CSCC(=O)Nc1ccc([As](=O)(O)O)cc1)C(=O)NCC(=O)O)C(=O)O` [GSAA, 4-(N-(S-glutathionylacetyl)amino)phenylarsonic acid, reference compound], in data set [2], the “adverse effect on the wellbeing of the chick embryo” value is reported as “Neither GSAA nor GSAO had any apparent adverse effect”. The figures for the “inhibition of CAM angiogenesis (avascular zones)” value in data set [2] and in data set [2] (listed as GSM) were “did not inhibit CAM angiogenesis” and “no effects”, respectively. In addition, the “effect on proliferation or viability” value is recorded as “no significant effect” in data set [3] (up to a concentration of 1 mM); “no significant effect” in data set [4] (3T3, up to a concentration of 1 mM); “no significant effect” in data set [5] (BxPC-3, up to a concentration of 1 mM). Further, in data set [7], the “effect on BAE viability” value is on record as “no significant effect”.
